Results published in patent US20120010159A1, “COMBINATION THERAPIES WITH COX-2 INHIBITORS AND TREPROSTINIL” (United Therapeutics Corporation, priority 2010, published 2012).

Experiments:
[1] = administered by subcutaneous infusion; cited from earlier work
[2] = oral administration; cited from earlier work
[3] = bioavailability when delivered to the duodenum; type: in vivo; details: duodenal delivery
Excerpt: Accordingly, one embodiment of the present invention involves preferential delivery of the desired compound to the duodenum as well as pharmaceutical formulations that achieve duodenal delivery. Duodenal administration can be achieved by any means known in the art. In one of these embodiments, the present compounds can be formulated in an enteric-coated dosage form. Generally, enteric-coated dosage forms are usually coated with a polymer that is not soluble at low pH, but dissolves quickly when exposed to pH conditions of 3 or above. This delivery form takes advantage of the difference in pH between the stomach, which is about 1 to 2, and the duodenum, where the pH tends to be greater than 4.

Row | bioavailability when delivered to the duodenum [3] | SMILES | absolute bioavailability [1] [%] | absolute oral bioavailability [2] [%]
1 | – | CCCCC[C@H](O)CC[C@@H]1[C@H]2Cc3cccc(OCC(=O)O)c3C[C@H]2C[C@H]1O [treprostinil sodium] | ~100 | –
2 | increased bioavailability | CCCCC[C@H](O)CC[C@@H]1[C@H]2Cc3cccc(OCC(=O)O)c3C[C@H]2C[C@H]1O [treprostinil] | – | ~10
